Experimental data reported in patent publication US8492398B2, “Spiroazaindoles” (Merck Sharp & Dohme Corp., priority 2008, dated 2013).

Molecular target: PHD2 (Homo sapiens, UniProt Q9GZT9)
Test: Assay for HIF-PHD2 catalytic activity (time-resolved fluorescence, VHL complex detection)
Format: biochemical
Settings: FLAG-tagged full length PHD2; 0.2 μM 2-oxoglutarate, 0.5 μM HIF-1α peptide; read-out: PHD2 Activity (PHD2 binding activity expressed as IC50)
Protocol: Assay for HIF-PHD2 Catalytic Activity
After a 30 min preincubation at room temperature, the enzymatic reactions were initiated by the addition of 4 μL of substrates (final concentrations of 0.2 μM 2-oxoglutarate and 0.5 μM HIF-1α peptide biotinyl-DLDLEMLAPYIPMDDDFQL). After 2 hr at room temperature, the reactions were terminated and signals were developed by the addition of a 25 μL quench/detection mix to a final concentration of 1 mM ortho-phenanthroline, 0.1 mM EDTA, 0.5 nM anti-(His)6 LANCE reagent (Perkin-Elmer Life Sciences), 100 nM AF647-labeled streptavidin (Invitrogen), and 2 μg/ml (His)6-VHL complex (S. Tan (2001) Protein Expr. Purif. 21, 224-234). The ratio of time resolved fluorescence signals at 665 and 620 nm was determined, and percent inhibition was calculated relative to an uninhibited control sample run in parallel.

Sequence of PHD2 (Q9GZT9 whole entry): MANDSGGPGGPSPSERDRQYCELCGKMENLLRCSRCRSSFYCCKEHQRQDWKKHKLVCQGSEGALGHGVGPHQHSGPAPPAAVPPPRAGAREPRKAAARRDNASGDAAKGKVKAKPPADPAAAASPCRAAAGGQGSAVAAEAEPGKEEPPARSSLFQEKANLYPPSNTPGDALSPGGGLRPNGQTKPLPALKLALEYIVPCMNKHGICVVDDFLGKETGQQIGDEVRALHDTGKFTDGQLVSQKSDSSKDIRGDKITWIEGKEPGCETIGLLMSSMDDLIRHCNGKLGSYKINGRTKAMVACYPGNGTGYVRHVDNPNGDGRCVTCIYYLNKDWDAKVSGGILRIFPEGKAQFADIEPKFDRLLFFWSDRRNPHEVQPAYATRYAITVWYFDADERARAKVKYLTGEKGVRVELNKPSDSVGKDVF

IC50 [nM]	SMILES
≤ 5	Cc1cccnc1CN1CCC2(CC1)C(=O)N(c1ccc(-c3ccccc3)cc1)c1nc(C(=O)O)ccc12 [Example 6, 1′-biphenyl-4-yl-1-[(3-methylpyridin-2-yl)methyl]-2′-oxo-1′,2′-dihydrospiro[piperidine-4,3′-pyrrolo[2,3-b]pyridine]-6′-carboxylic acid]
≤ 5	Cc1cccnc1CN1CCC2(CC1)C(=O)N(c1ccc(-c3ccccc3)cc1)c1ncc(C(=O)O)cc12 [Example 5, 1′-biphenyl-4-yl-1-[(3-methylpyridin-2-yl)methyl]-2′-oxo-1′,2′-dihydrospiro[piperidine-4,3′-pyrrolo[2,3-b]pyridine]-5′-carboxylic acid]
10 to 50	O=C(O)CN1CCC2(CC1)C(=O)N(c1ccc(-c3ccccc3)cc1)c1ncccc12 [Example 9, (1′-biphenyl-4-yl-2′-oxo-1′,2′-dihydro-1H-spiro[piperidine-4,3′-pyrrolo[2,3-b]pyridin]-1-yl)acetic acid]

More lines, now with the values behind:

SMILES	IC50 [nM]
O=C(O)CN1CCC2(CC1)C(=O)N(c1ccc(-c3ccccc3)cc1)c1ncc(Br)cc12 [Example 7, (1′-biphenyl-4-yl-5′-bromo-2′-oxo-1′,2′-dihydro-1H-spiro[piperidine-4,3′-pyrrolo[2,3-b]pyridin]-1-yl)acetic acid]	10 to 50
Cc1cccnc1CN1CCC2(CC1)C(=O)N(c1ccc(-c3ccccc3)cc1)c1ncc(C#N)cc12 [Example 4, 1′-biphenyl-4-yl-1-[(3-methylpyridin-2-yl)methyl]-2′-oxo-1′,2′-dihydrospiro[piperidine-4,3′-pyrrolo[2,3-b]pyridine]-5′-carbonitrile]	5 to 10
Cc1cccnc1CN1CCC2(CC1)C(=O)N(c1ccc(-c3ccccc3)cc1)c1nc(C#N)ccc12 [Example 3, 1′-biphenyl-4-yl-1-[(3-methylpyridin-2-yl)methyl]-2′-oxo-1′,2′-dihydrospiro[piperidine-4,3′-pyrrolo[2,3-b]pyridine]-6′-carbonitrile]	≤ 5
O=C(O)CN1CCC2(CC1)C(=O)N(c1ccc(-c3ccccc3)cc1)c1ncc(C(=O)O)cc12 [Example 10, 1′-biphenyl-4-yl-1-(carboxymethyl)-2′-oxo-1′,2′-dihydrospiro[piperidine-4,3′-pyrrolo[2,3-b]pyridine]-5′-carboxylic acid]	5 to 10
N#Cc1cnc2c(c1)C1(CCN(CC(=O)O)CC1)C(=O)N2c1ccc(-c2ccccc2)cc1 [Example 8, (1′-biphenyl-4-yl-5′-cyano-2′-oxo-1′,2′-dihydro-1H-spiro[piperidine-4,3′-pyrrolo[2,3-b]pyridin]-1-yl)acetic acid]	10 to 50
